For 27 compounds, IC50 results are on record in US11590139B2, “Substituted aminopurine compounds, compositions thereof, and methods of treatment therewith” (Signal Pharmaceuticals, LLC, priority 2014, dated 2023).

Bounds are passed on as bounds.

The first assay relates to Lox-IMVI melanoma cell line. Briefly: Lox-IMVI anti-proliferative assay (growth inhibition, Cell Titer-Glo). It is filed as cell-based, human. Conditions: Homo sapiens; IC50 activity level in the cell-based Lox-IMVI anti-proliferative assay; read-out: Activity. A digest of the protocol: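 RPMI/10% FBS; cmpd 0.5 nM–10 μM, 3-fold ×10, duplicate, 0.2% DMSO final; 72 h, 37 °C, 5% CO2. ATP-luminescence readout at t0 and 72 h. IC50 = 50% of DMSO control, 4-parameter logistic fit.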
Background: ATP-based viability assays read luminescence as a measure of living cells.
As to `NC(=O)[C@H]1CC[C@@H](n2c(Nc3c(Cl)cc(F)cc3Cl)nc3cnc(N[C@H]4C[C@H](O)C4)nc32)CC1` [Example 284, (1s,4s)-4-(8-(2,6-dichloro-4-fluorophenylamino)-2-((1r,3r)-3-hydroxycyclobutylamino)-9H-purin-9-yl)cyclohexanecarboxamide], the IC50 is above 1000 nM.

As to `NC(=O)[C@H]1CC[C@@H](n2c(Nc3c(Cl)cccc3Cl)nc3cnc(N[C@@H]4CC[C@@H](O)C4)nc32)CC1` [Example 211, (1S,4s)-4-(8-(2,6-dichlorophenylamino)-2-((1R,3R)-3-hydroxycyclopentylamino)-9H-purin-9-yl)cyclohexanecarboxamide], the IC50 was above 1000 nM.

Regarding `CC[C@@H](CO)Nc1ncc2nc(Nc3cccc(Cl)c3F)n([C@H]3CC[C@@H](C(N)=O)CC3)c2n1` [Example 150, (1R,4s)-4-(8-(3-chloro-2-fluorophenylamino)-2-((S)-1_ hydroxybutan-2-ylamino)-9H-purin-9-yl)cyclohexanecarboxamide], the IC50 is above 1000 nM.

Regarding `NC(=O)[C@H]1CC[C@@H](n2c(Nc3c(F)cc(Cl)cc3Cl)nc3cnc(NC4CCC4)nc32)CC1` [Example 130, (1s,4s)-4-(2-(cyclobutylamino)-8-(2,4-dichloro-6-fluorophenylamino)-9H-purin-9-yl)cyclohexanecarboxamide], the IC50 is above 1000 nM.

Consider `NC(=O)[C@H]1CC[C@@H](n2c(Nc3cccc(Cl)c3F)nc3cnc(NC4CCC(F)(F)CC4)nc32)CC1` [Example 237, (1s,4s)-4-(8-(3-chloro-2-fluorophenylamino)-2-(4,4-difluorocyclohexylamino)-9H-purin-9-yl)cyclohexanecarboxamide], for which the IC50 was above 1000 nM.

Turning to `Cc1ccc(Nc2nc3cnc(NC4CCOCC4)nc3n2[C@H]2CC[C@@H](C(N)=O)CC2)c(Cl)c1F` [Example 84, (1s,4s)-4-(8-(2-chloro-3-fluoro-4-methylphenylamino)-2-(tetrahydro-2H-pyran-4-ylamino)-9H-purin-9-yl)cyclohexanecarboxamide], the IC50 was 500 to 1000 nM.

Take `CC1(C)CC[C@@H](Nc2ncc3nc(Nc4c(F)ccc(Cl)c4F)n([C@H]4CC[C@@H](C(N)=O)CC4)c3n2)C[C@H]1O` [Example 390, (1S,4s)-4-(8-(3-chloro-2,6-difluorophenylamino)-2-((1R,3R)-3-hydroxy-4,4-dimethylcyclohexylamino)-9H-purin-9-yl)cyclohexanecarboxamide]: the IC50 was above 1000 nM.

In the case of `NC(=O)[C@H]1CC[C@@H](n2c(Nc3ccc(Cl)c(F)c3F)nc3cnc(N[C@@H]4CCC[C@H](O)C4)nc32)CC1` [Example 360, (1S,4s)-4-(8-(4-chloro-2,3-difluorophenylamino)-2-((1R,3S)-3-hydroxycyclohexylamino)-9H-purin-9-yl)cyclohexanecarboxamide], the IC50 was above 1000 nM.

For `NC(=O)[C@H]1CC[C@@H](n2c(Nc3c(F)cccc3F)nc3cnc(N[C@H]4CCC[C@@H]4O)nc32)CC1` [Example 267, (1R,4s)-4-(8-(2,6-difluorophenylamino)-2-((1S,2S)-2-hydroxycyclopentylamino)-9H-purin-9-yl)cyclohexanecarboxamide], the IC50 is above 1000 nM.

For `NC(=O)[C@H]1CC[C@@H](n2c(Nc3c(F)cc(F)cc3Cl)nc3cnc(N[C@H]4C[C@H](O)C4)nc32)CC1` [Example 282, (1s,4s)-4-(8-(2-chloro-4,6-difluorophenylamino)-2-((1R,3r)-3-hydroxycyclobutylamino)-9H-purin-9-yl)cyclohexanecarboxamide], the IC50 was above 1000 nM.

On to `N#Cc1cc(F)c(Nc2nc3cnc(NC4CCC(F)(F)CC4)nc3n2[C@H]2CC[C@@H](C(N)=O)CC2)c(Cl)c1` [Example 378, (1s,4s)-4-(8-(2-chloro-4-cyano-6-fluorophenylamino)-2-(4,4-difluorocyclohexylamino)-9H-purin-9-yl)cyclohexanecarboxamide], for which the IC50 fell in the range of 250 to 500 nM.

For `NC(=O)[C@H]1CC[C@@H](n2c(Nc3c(Cl)cccc3Cl)nc3cnc(N[C@@H]4CCC[C@H]4O)nc32)CC1` [Example 253, (1S,4s)-4-(8-(2,6-dichlorophenylamino)-2-((1R,2R)-2-hydroxycyclopentylamino)-9H-purin-9-yl)cyclohexanecarboxamide], the IC50 was above 1000 nM.

The assay is the same for the next values; noted with them: Homo sapiens; Lox-IMVI anti-proliferative assay, IC50 activity level; read-out: Activity.
With `N#Cc1cc(Cl)c(Nc2nc3cnc(N[C@H](CO)C(F)(F)F)nc3n2[C@H]2CC[C@@H](C(N)=O)CC2)c(Cl)c1` [Example 472, (1S,4s)-4-(8-(2,6-dichloro-4-cyanophenylamino)-2-((R)-1,1,1-trifluoro-3-hydroxypropan-2-ylamino)-9H-purin-9-yl)cyclohexanecarboxamide], the IC50 was above 1000 nM.

Regarding `COC(=O)N1CCC[C@@H](Nc2ncc3nc(Nc4c(F)cc(Cl)cc4F)n([C@H]4CC[C@@H](C(N)=O)CC4)c3n2)C1` [Example 408, (R)-methyl 3-(9-((1s,4S)-4-carbamoylcyclohexyl)-8-(4-chloro-2,6-difluorophenylamino)-9H-purin-2-ylamino)piperidine-1-carboxylate], the IC50 was in the range of 500 to 1000 nM.

For `CC[C@@H](CO)Nc1ncc2nc(Nc3c(F)cc(C#N)cc3Cl)n([C@H]3CC[C@@H](C(N)=O)CC3)c2n1` [Example 433, (1R,4s)-4-(8-(2-chloro-4-cyano-6-fluorophenylamino)-2-((S)-1-hydroxybutan-2-ylamino)-9H-purin-9-yl)cyclohexanecarboxamide], the IC50 was above 1000 nM.

With `C[C@]1(C(N)=O)CC[C@@H](n2c(Nc3c(Cl)cc(C#N)cc3Cl)nc3cnc(NC4CCC(F)(F)CC4)nc32)CC1` [Example 534, (1s,4s)-4-(8-(2,6-dichloro-4-cyanophenylamino)-2-(4,4-difluorocyclohexylamino)-9H-purin-9-yl)-1-methylcyclohexanecarboxamide], the IC50 is below 250 nM.

For the compound `C[C@@H](CO)Nc1ncc2nc(Nc3c(F)cc(Cl)cc3Cl)n([C@H]3CC[C@@](C)(C(N)=O)CC3)c2n1` [Example 547, (1R,4s)-4-(8-(2,4-dichloro-6-fluorophenylamino)-2-((S)-1-hydroxypropan-2-ylamino)-9H-purin-9-yl)-1-methylcyclohexanecarboxamide], the IC50 is below 250 nM.

In the case of `NC(=O)[C@H]1CC[C@@H](n2c(Nc3c(F)cc(F)cc3F)nc3cnc(N[C@H]4CCC[C@H](O)C4)nc32)CC1` [Example 458, (1R,4s)-4-(2-((1S,3S)-3-hydroxycyclohexylamino)-8-(2,4,6-trifluorophenylamino)-9H-purin-9-yl)cyclohexanecarboxamide], the IC50 was above 1000 nM.

Turning to `NC(=O)[C@H]1CC[C@@H](n2c(Nc3c(Cl)cc(F)cc3Cl)nc3cnc(N[C@H]4CCC(F)(F)C4)nc32)CC1` [Example 585, (1R,4s)-4-(8-(2,6-dichloro-4-fluorophenylamino)-2-((S)-3,3-difluorocyclopentylamino)-9H-purin-9-yl)cyclohexanecarboxamide], the IC50 was in the range of 500 to 1000 nM.

The assay is the same for the next values; noted with them: Homo sapiens; Lox-IMVI melanoma cell line, anti-proliferative assay; read-out: Activity (IC50 activity level).
Turning to `C[C@]1(C(N)=O)CC[C@@H](n2c(Nc3c(Cl)cc(Cl)cc3Cl)nc3cnc(NC4CCC4)nc32)CC1` [Example 603, (1s,4s)-4-(2-(cyclobutylamino)-8-(2,4,6-trichlorophenylamino)-9H-purin-9-yl)-1-methylcyclohexanecarboxamide], the IC50 was below 250 nM.

Consider `C[C@]1(C(N)=O)CC[C@@H](n2c(Nc3c(F)cc(Cl)cc3F)nc3cnc(N[C@@H]4CCOC[C@H]4F)nc32)CC1` [Example 720, (1S,4s)-4-(8-(4-chloro-2,6-difluorophenylamino)-2-((3S,4R)-3-fluorotetrahydro-2H-pyran-4-ylamino)-9H-purin-9-yl)-1-methylcyclohexanecarboxamide], for which the IC50 was below 250 nM.

For `C[C@]1(C(N)=O)CC[C@@H](n2c(Nc3c(F)cc(Cl)cc3Cl)nc3cnc(N[C@@H]4CC[C@@H](O)C4)nc32)CC1` [Example 637, (1S,4s)-4-(8-(2,4-dichloro-6-fluorophenylamino)-2-((1R,3R)-3-hydroxycyclopentylamino)-9H-purin-9-yl)-1-methylcyclohexanecarboxamide], the IC50 is below 250 nM.

Consider `C[C@@H]1COCC[C@H]1Nc1ncc2nc(Nc3c(F)cc(Cl)cc3F)n([C@H]3CC[C@@](C)(C(N)=O)CC3)c2n1` [Example 722, (1S,4s)-4-(8-(4-chloro-2,6-difluorophenylamino)-2-((3S,4R)-3-methyltetrahydro-2H-pyran-4-ylamino)-9H-purin-9-yl)-1-methylcyclohexanecarboxamide], for which the IC50 is below 250 nM.

As to `N#Cc1ccc(Nc2nc3cnc(NC4CCCC4)nc3n2[C@H]2CC[C@@H](C(N)=O)CC2)c(Cl)c1Cl` [Example 693, (1s,4s)-4-(2-(cyclopentylamino)-8-(2,3-dichloro-4-cyanophenylamino)-9H-purin-9-yl)cyclohexanecarboxamide], the IC50 is above 1000 nM.

Take `NC(=O)[C@H]1CC[C@@H](n2c(Nc3c(F)cc(F)cc3F)nc3cnc(N[C@@H]4CCCN(c5ccccc5)C4)nc32)CC1` [Example 746, (1S,4s)-4-(2-((R)-1-phenylpiperidin-3-ylamino)-8-(2,4,6-trifluorophenylamino)-9H-purin-9-yl)cyclohexanecarboxamide]: the IC50 was above 1000 nM.

For the compound `C[C@]1(C(N)=O)CC[C@@H](n2c(Nc3c(Cl)cc(C#N)cc3Cl)nc3cnc(N[C@H]4CCC[C@H](O)C4)nc32)CC1` [Example 616, (1R,4s)-4-(8-(2,6-dichloro-4-cyanophenylamino)-2-((1S,3S)-3-hydroxycyclohexylamino)-9H-purin-9-yl)-1-methylcyclohexanecarboxamide], the IC50 is below 250 nM.

Take `C[C@]1(C(N)=O)CC[C@@H](n2c(Nc3c(Cl)cc(F)cc3Cl)nc3cnc(N[C@H]4CCC[C@@H](O)C4)nc32)CC1` [Example 631, (1R,4s)-4-(8-(2,6-dichloro-4-fluorophenylamino)-2-((1S,3R)-3-hydroxycyclohexylamino)-9H-purin-9-yl)-1-methylcyclohexanecarboxamide]: the IC50 was in the range of 500 to 1000 nM.
